According to PubChem BioAssay AID248 (DTP/NCI, 2004):
Where “and” joins values, the source holds several entries; their conditions need not be identical. Identical values can stand only once. Toxic doses and inconclusive results are not listed.

Test system: L1210 leukemia ip in BDF1 mice, survival T/C
Experiment: NCI In Vivo Anticancer Drug Screen. Data for tumor model L1210 Leukemia (intraperitoneal) in B6D2F1 (BDF1) mice
Conditions: endpoint: mean survival time, higher = longer survival
Outline: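 Ratio derived from survival: compound-dosed mice over vehicle-dosed mice, all bearing a transplantable tumor.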

[1] = dose: 100.0 mg/kg/injection, schedule: Q01DX001 (ip), vehicle: Klucel (hydroxypropylcellulose) (HPC)
[2] = dose: 200.0 mg/kg/injection, schedule: Q01DX001 (ip), vehicle: Klucel (hydroxypropylcellulose) (HPC)
[3] = dose: 400.0 mg/kg/injection, schedule: Q01DX001 (ip), vehicle: Klucel (hydroxypropylcellulose) (HPC)
[4] = dose: 100.0 mg/kg/injection, schedule: Q01DX001 (ip), vehicle: carboxymethylcellulose (CMC)
[5] = dose: 200.0 mg/kg/injection, schedule: Q01DX001 (ip), vehicle: carboxymethylcellulose (CMC)
[6] = dose: 400.0 mg/kg/injection, schedule: Q01DX001 (ip), vehicle: carboxymethylcellulose (CMC)

For `NC(CSC(c1ccccc1)(c1ccccc1)c1ccc(CBr)cc1)C(=O)O` (centres undefined), the T/C (dose: 50.0 mg/kg/injection, schedule: Q01DX009 (ip), vehicle: other) was 105 % of control, the T/C (dose: 100.0 mg/kg/injection, schedule: Q01DX009 (ip), vehicle: other) was 115 % of control and the T/C (dose: 200.0 mg/kg/injection, schedule: Q01DX009 (ip), vehicle: other) was 121 % of control.

`CC(C)OC(=S)SCC(=O)c1ccccc1` was tested, and the T/C (dose: 100.0 mg/kg/injection, schedule: Q04DX002 (ip), vehicle: Klucel (hydroxypropylcellulose) (HPC)) was 92 % of control, the T/C (dose: 200.0 mg/kg/injection, schedule: Q04DX002 (ip), vehicle: Klucel (hydroxypropylcellulose) (HPC)) was 101 % of control and the T/C (dose: 400.0 mg/kg/injection, schedule: Q04DX002 (ip), vehicle: Klucel (hydroxypropylcellulose) (HPC)) was 99 % of control.

`O=S(=O)(CCO)c1ccc2ccccc2c1` was tested, and the T/C [1] was 101 % of control, the T/C (dose: 100.0 mg/kg/injection, schedule: Q04DX003 (ip), vehicle: Klucel (hydroxypropylcellulose) (HPC)) was 101 % of control and the T/C [2] was 98 % of control. For the same molecule, the T/C (dose: 200.0 mg/kg/injection, schedule: Q04DX003 (ip), vehicle: Klucel (hydroxypropylcellulose) (HPC)) was 97 % of control, the T/C [3] was 98 % of control and the T/C (dose: 400.0 mg/kg/injection, schedule: Q04DX003 (ip), vehicle: Klucel (hydroxypropylcellulose) (HPC)) was 105 % of control.

`CCCCCCCCCC(=O)N(CC)CC` was tested, and the T/C (dose: 200.0 mg/kg/injection, schedule: Q04DX002 (ip), vehicle: saline) was 111 % of control and the T/C (dose: 400.0 mg/kg/injection, schedule: Q04DX002 (ip), vehicle: saline) was 92 % of control.

`CCCCN(CCCC)CCSc1c(Cl)c(Cl)c(Cl)c(Cl)c1Cl` was tested, and the T/C (dose: 320.0 mg/kg/injection, schedule: Q01DX Z (ip), vehicle: saline) was 99 % of control and the T/C (dose: 480.0 mg/kg/injection, schedule: Q01DX Z (ip), vehicle: saline) was 90 % of control.

In the case of `O=C(CNc1ccc2c(c1)Cc1cc(Br)ccc1-2)c1ccc(Br)cc1`, the T/C [4] is reported as 105 % of control, the T/C [5] is reported as 111 % of control and the T/C [6] is reported as 105 % of control.

For `Cc1nc(-c2ccc(N=Cc3ccc(N(CCCl)CCCl)cc3)cc2)cs1`, the T/C (dose: 50.0 mg/kg/injection, schedule: Q01DX009 (ip), vehicle: saline) was 101 % of control, the T/C (dose: 100.0 mg/kg/injection, schedule: Q01DX001 (ip), vehicle: saline) was 101 % of control and the T/C (dose: 100.0 mg/kg/injection, schedule: Q01DX009 (ip), vehicle: saline) was 104 % of control. The T/C (dose: 200.0 mg/kg/injection, schedule: Q01DX001 (ip), vehicle: saline) was 90 % of control, the T/C (dose: 200.0 mg/kg/injection, schedule: Q01DX009 (ip), vehicle: saline) was 98 % of control and the T/C (dose: 400.0 mg/kg/injection, schedule: Q01DX001 (ip), vehicle: saline) was 89 % of control. For the same molecule, the T/C (dose: 400.0 mg/kg/injection, schedule: Q01DX009 (ip), vehicle: saline) was 102 % of control.

`O=C(Nc1ccccc1F)OCCOc1ccc(Br)cc1` was tested, and the T/C (dose: 100.0 mg/kg/injection, schedule: Q01DX009 (ip), vehicle: Klucel (hydroxypropylcellulose) (HPC)) was 103 % of control, the T/C (dose: 200.0 mg/kg/injection, schedule: Q01DX009 (ip), vehicle: Klucel (hydroxypropylcellulose) (HPC)) was 97 % of control and the T/C (dose: 400.0 mg/kg/injection, schedule: Q01DX009 (ip), vehicle: Klucel (hydroxypropylcellulose) (HPC)) was 123 % of control.

For `CCC1(Cl)C(=O)OCc2c1cc1n(c2=O)Cc2cc3ccccc3nc2-1` (centres undefined), the T/C (dose: 1.0 mg/kg/injection, schedule: Q01DX001 (ip), vehicle: saline) was 97 % of control, the T/C (dose: 1.0 mg/kg/injection, schedule: Q01DX Z (ip), vehicle: saline) was 100 % of control and the T/C (dose: 2.0 mg/kg/injection, schedule: Q01DX001 (ip), vehicle: saline) was 101 % of control. The T/C (dose: 2.0 mg/kg/injection, schedule: Q01DX Z (ip), vehicle: saline) was 95 % of control, the T/C (dose: 4.0 mg/kg/injection, schedule: Q01DX001 (ip), vehicle: saline) was 100 % of control and the T/C (dose: 4.0 mg/kg/injection, schedule: Q01DX Z (ip), vehicle: saline) was 97 % of control. For the same molecule, the T/C (dose: 6.0 mg/kg/injection, schedule: Q01DX001 (ip), vehicle: saline) was 95 % of control and the T/C (dose: 6.0 mg/kg/injection, schedule: Q01DX Z (ip), vehicle: saline) was 103 % of control.

`O=NN(CCF)C(=O)Nc1c[nH]c(=O)[nH]c1=O` was tested, and the T/C (dose: 20.0 mg/kg/injection, schedule: Q01DX001 (ip), vehicle: carboxymethylcellulose (CMC)) was 178 % of control.

`O=[N+]([O-])CC(Nc1ccccc1)c1ccccc1` (centres undefined) was tested, and the T/C (dose: 12.5 mg/kg/injection, schedule: Q01DX009 (ip), vehicle: Klucel (hydroxypropylcellulose) (HPC)) was 108 % of control, the T/C (dose: 25.0 mg/kg/injection, schedule: Q01DX009 (ip), vehicle: Klucel (hydroxypropylcellulose) (HPC)) was 100 % of control and the T/C (dose: 50.0 mg/kg/injection, schedule: Q01DX001 (ip), vehicle: Klucel (hydroxypropylcellulose) (HPC)) was 96 % of control and 110 % of control. For the same molecule, the T/C (dose: 50.0 mg/kg/injection, schedule: Q01DX001 (ip), vehicle: carboxymethylcellulose (CMC)) was 102 % of control, the T/C (dose: 50.0 mg/kg/injection, schedule: Q01DX009 (ip), vehicle: Klucel (hydroxypropylcellulose) (HPC)) was 102 % of control and the T/C [1] was 97 % of control and 98 % of control. The T/C [4] was 102 % of control, the T/C [2] was 102 % of control and 107 % of control and the T/C [5] was 100 % of control. For the same molecule, the T/C [3] was 105 % of control and the T/C [6] was 90 % of control.
